Assay: Hydroxocobalamin-containing solutions
Format: physicochemical
Description: A variety of solutions containing hydroxocobalamin (HO-Cbl) were tested. The excipients tested in these studies were the same as those used above: (a) 15% ethanol; (b) 20% ethanol; (c) 20% propylene glycol; (d) 40% propylene glycol; (e) 15% ethanol and 20% propylene glycol; and (f) 20% ethanol and 40% propylene glycol. Here, however, three challenge amounts were tested (˜16, 40, and 81 mg/ml HO-Cbl) and the time course was slightly longer, with measurements being made on Day 3 and Day 5. The OH-Cbl was solubilized at room temperature, as it dissolved readily in the excipients tested. If necessary or desired, the solutions can be mixed by shaking briefly (using, for example, a vortex or other agitation for a few seconds (e.g., 5-20 seconds) to a minute or so (e.g., 1-3 minutes). Following suitable dilution, the absorbance at […] was measured.

## C/C1=C2/[N-][C@H]([C@H](CC(N)=O)[C@@]2(C)CCC(=O)NC[C@@H](C)OP(=O)([O-])O[C@H]2[C@@H](O)[C@@H](n3cnc4cc(C)c(C)cc43)O[C@@H]2CO)[C@]2(C)N=C(/C(C)=C3N=C(/C=C4N=C1[C@@H](CCC(N)=O)C\4(C)C)[C@@H](CCC(N)=O)[C@]\3(C)CC(N)=O)[C@@H](CCC(N)=O)[C@]2(C)CC(N)=O.[Co+3].[OH-] [OH-Cbl, hydroxocobalamin]
Any of the solutions tested, any of the three challenge amounts
  concentrations of HO-Cbl versus control (water) values: did not substantially exceed control values
Challenge 16.18 mg/mL, ethanol 0%, PG 0%, Day 0
  Conc of OH-Cbl: 0 µg/mL
Challenge 16.18 mg/mL, ethanol 0%, PG 0%, Day 3
  Conc of OH-Cbl: 16830 µg/mL
Challenge 16.18 mg/mL, ethanol 0%, PG 0%, Day 5
  Conc of OH-Cbl: 16930 µg/mL
Challenge 16.18 mg/mL, ethanol 0%, PG 20%, Day 0
  Conc of OH-Cbl: 0 µg/mL
Challenge 16.18 mg/mL, ethanol 0%, PG 20%, Day 3
  Conc of OH-Cbl: 17100 µg/mL
Challenge 16.18 mg/mL, ethanol 0%, PG 20%, Day 5
  Conc of OH-Cbl: 17310 µg/mL
Challenge 16.18 mg/mL, ethanol 0%, PG 40%, Day 0
  Conc of OH-Cbl: 0 µg/mL
Challenge 16.18 mg/mL, ethanol 0%, PG 40%, Day 3
  Conc of OH-Cbl: 16780 µg/mL
Challenge 16.18 mg/mL, ethanol 0%, PG 40%, Day 5
  Conc of OH-Cbl: 17100 µg/mL
Challenge 16.18 mg/mL, ethanol 15%, PG 0%, Day 0
  Conc of OH-Cbl: 0 µg/mL
Challenge 16.18 mg/mL, ethanol 15%, PG 0%, Day 3
  Conc of OH-Cbl: 16670 µg/mL
Challenge 16.18 mg/mL, ethanol 15%, PG 0%, Day 5
  Conc of OH-Cbl: 17060 µg/mL
Challenge 16.18 mg/mL, ethanol 15%, PG 20%, Day 0
  Conc of OH-Cbl: 0 µg/mL
Challenge 16.18 mg/mL, ethanol 15%, PG 20%, Day 3
  Conc of OH-Cbl: 16940 µg/mL
Challenge 16.18 mg/mL, ethanol 15%, PG 20%, Day 5
  Conc of OH-Cbl: 17440 µg/mL
Challenge 16.18 mg/mL, ethanol 20%, PG 0%, Day 0
  Conc of OH-Cbl: 0 µg/mL
Challenge 16.18 mg/mL, ethanol 20%, PG 0%, Day 3
  Conc of OH-Cbl: 17050 µg/mL
Challenge 16.18 mg/mL, ethanol 20%, PG 0%, Day 5
  Conc of OH-Cbl: 17140 µg/mL
Challenge 16.18 mg/mL, ethanol 20%, PG 40%, Day 0
  Conc of OH-Cbl: 0 µg/mL
Challenge 16.18 mg/mL, ethanol 20%, PG 40%, Day 3
  Conc of OH-Cbl: 16250 µg/mL
Challenge 16.18 mg/mL, ethanol 20%, PG 40%, Day 5
  Conc of OH-Cbl: 16590 µg/mL
Challenge 40.45 mg/mL, ethanol 0%, PG 0%, Day 0
  Conc of OH-Cbl: 0 µg/mL
Challenge 40.45 mg/mL, ethanol 0%, PG 0%, Day 3
  Conc of OH-Cbl: 41900 µg/mL
Challenge 40.45 mg/mL, ethanol 0%, PG 0%, Day 5
  Conc of OH-Cbl: 41680 µg/mL
Challenge 40.45 mg/mL, ethanol 0%, PG 20%, Day 0
  Conc of OH-Cbl: 0 µg/mL
Challenge 40.45 mg/mL, ethanol 0%, PG 20%, Day 3
  Conc of OH-Cbl: 41680 µg/mL
Challenge 40.45 mg/mL, ethanol 0%, PG 20%, Day 5
  Conc of OH-Cbl: 41470 µg/mL
Challenge 40.45 mg/mL, ethanol 0%, PG 40%, Day 0
  Conc of OH-Cbl: 0 µg/mL
Challenge 40.45 mg/mL, ethanol 0%, PG 40%, Day 3
  Conc of OH-Cbl: 41790 µg/mL
Challenge 40.45 mg/mL, ethanol 0%, PG 40%, Day 5
  Conc of OH-Cbl: 41790 µg/mL
Challenge 40.45 mg/mL, ethanol 15%, PG 0%, Day 0
  Conc of OH-Cbl: 0 µg/mL
Challenge 40.45 mg/mL, ethanol 15%, PG 0%, Day 3
  Conc of OH-Cbl: 41150 µg/mL
Challenge 40.45 mg/mL, ethanol 15%, PG 0%, Day 5
  Conc of OH-Cbl: 41470 µg/mL
Challenge 40.45 mg/mL, ethanol 15%, PG 20%, Day 0
  Conc of OH-Cbl: 0 µg/mL
Challenge 40.45 mg/mL, ethanol 15%, PG 20%, Day 3
  Conc of OH-Cbl: 41040 µg/mL
Challenge 40.45 mg/mL, ethanol 15%, PG 20%, Day 5
  Conc of OH-Cbl: 42220 µg/mL
Challenge 40.45 mg/mL, ethanol 20%, PG 0%, Day 0
  Conc of OH-Cbl: 0 µg/mL
Challenge 40.45 mg/mL, ethanol 20%, PG 0%, Day 3
  Conc of OH-Cbl: 41580 µg/mL
Challenge 40.45 mg/mL, ethanol 20%, PG 0%, Day 5
  Conc of OH-Cbl: 41040 µg/mL
Challenge 40.45 mg/mL, ethanol 20%, PG 40%, Day 0
  Conc of OH-Cbl: 0 µg/mL
Challenge 40.45 mg/mL, ethanol 20%, PG 40%, Day 3
  Conc of OH-Cbl: 41360 µg/mL
Challenge 40.45 mg/mL, ethanol 20%, PG 40%, Day 5
  Conc of OH-Cbl: 41580 µg/mL
Challenge 80.90 mg/mL, ethanol 0%, PG 0%, Day 0
  Conc of OH-Cbl: 0 µg/mL
Challenge 80.90 mg/mL, ethanol 0%, PG 0%, Day 3
  Conc of OH-Cbl: 81020 µg/mL
Challenge 80.90 mg/mL, ethanol 0%, PG 0%, Day 5
  Conc of OH-Cbl: 80800 µg/mL
Challenge 80.90 mg/mL, ethanol 0%, PG 20%, Day 0
  Conc of OH-Cbl: 0 µg/mL
Challenge 80.90 mg/mL, ethanol 0%, PG 20%, Day 3
  Conc of OH-Cbl: 83800 µg/mL
Challenge 80.90 mg/mL, ethanol 0%, PG 20%, Day 5
  Conc of OH-Cbl: 82090 µg/mL
Challenge 80.90 mg/mL, ethanol 0%, PG 40%, Day 0
  Conc of OH-Cbl: 0 µg/mL
Challenge 80.90 mg/mL, ethanol 0%, PG 40%, Day 3
  Conc of OH-Cbl: 81870 µg/mL
Challenge 80.90 mg/mL, ethanol 0%, PG 40%, Day 5
  Conc of OH-Cbl: 82730 µg/mL
Challenge 80.90 mg/mL, ethanol 15%, PG 0%, Day 0
  Conc of OH-Cbl: 0 µg/mL
Challenge 80.90 mg/mL, ethanol 15%, PG 0%, Day 3
  Conc of OH-Cbl: 82730 µg/mL
Challenge 80.90 mg/mL, ethanol 15%, PG 0%, Day 5
  Conc of OH-Cbl: 82940 µg/mL
Challenge 80.90 mg/mL, ethanol 15%, PG 20%, Day 0
  Conc of OH-Cbl: 0 µg/mL
Challenge 80.90 mg/mL, ethanol 15%, PG 20%, Day 3
  Conc of OH-Cbl: 81230 µg/mL
Challenge 80.90 mg/mL, ethanol 15%, PG 20%, Day 5
  Conc of OH-Cbl: 80160 µg/mL
Challenge 80.90 mg/mL, ethanol 20%, PG 0%, Day 0
  Conc of OH-Cbl: 0 µg/mL
Challenge 80.90 mg/mL, ethanol 20%, PG 0%, Day 3
  Conc of OH-Cbl: 82090 µg/mL
Challenge 80.90 mg/mL, ethanol 20%, PG 0%, Day 5
  Conc of OH-Cbl: 80590 µg/mL
Challenge 80.90 mg/mL, ethanol 20%, PG 40%, Day 0
  Conc of OH-Cbl: 0 µg/mL
Challenge 80.90 mg/mL, ethanol 20%, PG 40%, Day 3
  Conc of OH-Cbl: 82940 µg/mL
Challenge 80.90 mg/mL, ethanol 20%, PG 40%, Day 5
  Conc of OH-Cbl: 82730 µg/mL

Source: US20080039422A1, “Vitamin B12-Containing Compositions and Methods of Use” (Transition Therapeutics Inc., priority 2004, published 2008)
